Converted amounts (≈) assume the structure as drawn. Where a SMILES comes first, the peptide text is derived from it. Bridges are numbered along the chain shown (N, C = ends). Roman numbers before positions name the chains, in order. [ ]: non-standard residue; d: D form. Tle = CC(C)(C)[C@H](N)C(=O)O; NMeV = CN[C@H](C(=O)O)C(C)C; dDab = NCC[C@@H](N)C(=O)O; hSer = N[C@@H](CCO)C(=O)O; Orn = NCCC[C@H](N)C(=O)O; Dab = NCC[C@H](N)C(=O)O; Dap = NC[C@H](N)C(=O)O
What was measured:
Format in all cases: cell-based
[1] = system: Escherichia coli ATCC 25922; conditions: ATCC 25922
Protocol: (§1) The in vitro antimicrobial activities of the peptides were determined in 96-well plates (Greiner, polystyrene) by the standard CLSI broth microdilution method (Clinical and Laboratory Standards Institute 2014. Performance standards for antimicrobial susceptibility testing, 24th informational supplement. Approved standard CLSI M100-S24; Clinical and Laboratory Standards Institute, Wayne, Pa.). The following microorganisms were used to determine antibiotic activity of the peptides: Escherichia coli ATCC 25922, Klebsiella pneumoniae SSI #3010^a), Acinetobacter baumannii DSM 30008, Pseudomonas aeruginosa ATCC 27853 and the clinical isolates Escherichia coli 926415^b), Klebsiella pneumoniae 968733^b), Acinetobacter baumannii 872842^b), Enterobacter cloacae 848840^b) and Escherichia coli MCR-1 Af45^c). Before preparation of inocula, Escherichia coli MCR-1 Af45 was subcultured on Mueller-Hinton II (MH-cation adjusted) agar containing 2 μg/mL colistin. ^a) Obtained from Statens Serum Institut (SSI), Copenhagen, Denmark^b) Obtained from International Health Management Associates, Inc. (IHMA Europe Sàrl), Epalinges, Switzerland^c) Obtained from Prof. Patrice Nordmann, University of Fribourg, Fribourg, Switzerland
(§2) Inocula of the microorganisms were diluted into Mueller-Hinton II (MH-cation adjusted) broth and compared with a 0.5 McFarland standard to give appr. 10^6 colony forming units (CFU)/mL. Aliquots (90 μL) of inoculum were added to 10 μL of MH-II broth+P-80 (Polysorbate 80, 0.002% final concentration, v/v) containing the peptide in serial two-fold dilutions. Antimicrobial activities of the peptides were expressed as the minimal inhibitory concentration (MIC) in μg/mL at which no visible growth was observed after 18-20 hours of incubation at 35° C.

[2] = system: Pseudomonas aeruginosa ATCC 27853; conditions: ATCC 27853
Protocol: as §1, §2

[3] = system: Klebsiella pneumoniae SSI #3010; conditions: SSI #3010
Protocol: as §1, §2

[4] = system: Acinetobacter baumannii DSM 30008; conditions: DSM 30008
Protocol: as §1, §2

[5] = system: human red blood cells (hRBC); experiment: Hemolysis; conditions: red cells of human, 1 h, 200
Protocol: The peptides were tested for their hemolytic activity against human red blood cells (hRBC). Fresh hRBC were washed four times with phosphate buffered saline (PBS) and centrifuged for 10 min at 3000×g. Compounds (200 μg/mL) were incubated with 20% hRBC (v/v) for 1 h at 37° C. and shaking at 300 rpm. A value of 0% and 100% cell lysis, respectively, was determined by incubation of hRBC in the presence of PBS containing 10% water and 2% Triton X-100 in H2O, respectively. The samples were centrifuged, the supernatants were ˜7.5-fold diluted in PBS buffer and the optical densities (OD) were measured at 540 nm and blank corrected. The 100% lysis value (OD540Triton X-100) gave an OD540 of approximately 0.5-1.0.
Percent hemolysis was calculated as follows: (OD540peptide/OD540Triton X-100)×100%.

Structure (SMILES) | MIC [1] | MIC [2] | MIC [3] | MIC [4] | Hemolysis at 200 μg/mL [5]
CC(=O)N[C@@H](CCN)C(=O)N[C@H](C(=O)N[C@@H](CN)C(=O)N[C@@H](Cc1ccc(O)cc1)C(=O)N[C@H]1CSSC[C@@H](C(=O)N[C@H](C(N)=O)C(C)(C)C)NC(=O)[C@H](Cc2c[nH]c3ccccc23)NC(=O)[C@H](CO)NC(=O)[C@@H](CCN)NC(=O)[C@H](CCC(=O)N[C@@H](CCN)C(=O)N[C@H](C(=O)N[C@@H](CN)C(=O)N[C@H]2CCNC(=O)[C@H]([C@@H](C)O)NC(=O)[C@H](CCN)NC(=O)[C@H](CCN)NC(=O)[C@H](CC(C)C)NC(=O)[C@@H](CC(C)C)NC(=O)[C@H](CCN)NC2=O)[C@@H](C)O)NC1=O)C(C)C [Ex. 13] (I: Ac-[Dab]V[Dap]YCE[dDab]SWC[Tle]-NH2 / II: [Dab]T[Dap][Dab][Dab][dL]L[Dab][Dab]T; disulfide I:5-I:10; amide I:6-II:N; lactam II:4-II:C) | 0.125 µg/mL (≈ 0.0538 µM) | 0.125 µg/mL (≈ 0.0538 µM) | 0.125 µg/mL (≈ 0.0538 µM) | 0.125 µg/mL (≈ 0.0538 µM) | <1%
CC(=O)N[C@@H](CCN)C(=O)N[C@H](C(=O)N[C@@H](CN)C(=O)N[C@@H](Cc1ccc(O)cc1)C(=O)N[C@H]1CSSC[C@@H](C(=O)N[C@H](C(N)=O)C(C)(C)C)NC(=O)[C@H](Cc2c[nH]c3ccccc23)NC(=O)[C@H](CCN)NC(=O)[C@@H](CCN)NC(=O)[C@H](CCC(=O)N[C@@H](CCN)C(=O)N[C@H](C(=O)N[C@@H](CN)C(=O)N[C@H]2CCNC(=O)[C@H]([C@@H](C)O)NC(=O)[C@H](CCN)NC(=O)[C@H](CCN)NC(=O)[C@H](CC(C)C)NC(=O)[C@@H](CC(C)C)NC(=O)[C@H](CCN)NC2=O)[C@@H](C)O)NC1=O)C(C)C [Ex. 14] (I: Ac-[Dab]V[Dap]YCE[dDab][Dab]WC[Tle]-NH2 / II: [Dab]T[Dap][Dab][Dab][dL]L[Dab][Dab]T; disulfide I:5-I:10; amide I:6-II:N; lactam II:4-II:C) | 0.25 µg/mL (≈ 0.107 µM) | 0.25 µg/mL (≈ 0.107 µM) | 0.5 µg/mL (≈ 0.214 µM) | 0.5 µg/mL (≈ 0.214 µM) | <1%
CN[C@H](C(=O)N[C@@H](CN)C(=O)N[C@@H](Cc1ccc(O)cc1)C(=O)N[C@H]1CSSC[C@@H](C(=O)N[C@H](C(=O)N[C@@H](C)C(=O)N[C@@H](CO)C(N)=O)C(C)(C)C)NC(=O)[C@H](Cc2c[nH]c3ccccc23)NC(=O)[C@H]([C@@H](C)O)NC(=O)[C@@H](CCN)NC(=O)[C@H](CCC(=O)N[C@@H](CCN)C(=O)N[C@H](C(=O)N[C@@H](CCN)C(=O)N[C@H]2CCNC(=O)[C@H]([C@@H](C)O)NC(=O)[C@H](CCN)NC(=O)[C@H](CCN)NC(=O)[C@H](CC(C)C)NC(=O)[C@@H](CC(C)C)NC(=O)[C@H](CCN)NC2=O)[C@@H](C)O)NC1=O)C(C)C [Ex. 180] (I: H-[NMeV][Dap]YCE[dDab]TWC[Tle]AS-NH2 / II: [Dab]T[Dab][Dab][Dab][dL]L[Dab][Dab]T; disulfide I:4-I:9; amide I:5-II:N; lactam II:4-II:C) | 0.125 µg/mL (≈ 0.0525 µM) | 0.125 µg/mL (≈ 0.0525 µM) | 0.5 µg/mL (≈ 0.21 µM) | 0.25 µg/mL (≈ 0.105 µM) | <1%
CN[C@H](C(=O)N[C@H](C(=O)N[C@@H](Cc1ccc(O)cc1)C(=O)N[C@H]1CSSC[C@@H](C(=O)N[C@H](C(=O)N[C@@H](C)C(=O)N[C@@H](CO)C(N)=O)C(C)C)NC(=O)[C@H](Cc2c[nH]c3ccccc23)NC(=O)[C@H](CCO)NC(=O)[C@@H](CCN)NC(=O)[C@H](CCC(=O)N[C@@H](CCN)C(=O)N[C@H](C(=O)N[C@@H](CCN)C(=O)N[C@H]2CCNC(=O)[C@H]([C@@H](C)O)NC(=O)[C@H](CCN)NC(=O)[C@H](CCN)NC(=O)[C@H](CC(C)C)NC(=O)[C@@H](CC(C)C)NC(=O)[C@H](CCN)NC2=O)[C@@H](C)O)NC1=O)[C@@H](C)O)C(C)C [Ex. 183] (I: H-[NMeV]TYCE[dDab][hSer]WCVAS-NH2 / II: [Dab]T[Dab][Dab][Dab][dL]L[Dab][Dab]T; disulfide I:4-I:9; amide I:5-II:N; lactam II:4-II:C) | 0.125 µg/mL (≈ 0.0524 µM) | 0.125 µg/mL (≈ 0.0524 µM) | 0.25 µg/mL (≈ 0.105 µM) | 0.25 µg/mL (≈ 0.105 µM) | <1%
CC(=O)N[C@H](C(=O)N[C@H](C(=O)N[C@@H](Cc1ccc(O)cc1)C(=O)N[C@H]1CC(=O)NCC[C@@H](C(=O)N[C@H](C(=O)N[C@@H](C)C(=O)N[C@@H](CO)C(N)=O)C(C)C)NC(=O)[C@H](Cc2c[nH]c3ccccc23)NC(=O)[C@H](CCO)NC(=O)[C@@H](CCN)NC(=O)[C@H](CCC(=O)N[C@@H](CCN)C(=O)N[C@H](C(=O)N[C@@H](CCN)C(=O)N[C@H]2CCNC(=O)[C@H]([C@@H](C)O)NC(=O)[C@H](CCN)NC(=O)[C@H](CCN)NC(=O)[C@H](CC(C)C)NC(=O)[C@@H](CC(C)C)NC(=O)[C@H](CCN)NC2=O)[C@@H](C)O)NC1=O)[C@@H](C)O)C(C)C [Ex. 187] (I: Ac-VTYDE[dDab][hSer]W[Dab]VAS-NH2 / II: [Dab]T[Dab][Dab][Dab][dL]L[Dab][Dab]T; lactam I:4-I:9, II:4-II:C; amide I:5-II:N) | 0.125 µg/mL (≈ 0.052 µM) | 0.5 µg/mL (≈ 0.208 µM) | 0.25 µg/mL (≈ 0.104 µM) | 0.5 µg/mL (≈ 0.208 µM) | <1%

Second part, led by results:

MIC [1] | MIC [2] | MIC [3] | MIC [4] | Structure (SMILES) | Hemolysis at 200 μg/mL [5]
0.125 µg/mL (≈ 0.0536 µM) | 0.25 µg/mL (≈ 0.107 µM) | 0.125 µg/mL (≈ 0.0536 µM) | 0.125 µg/mL (≈ 0.0536 µM) | CC(=O)N[C@H](C(=O)N[C@H]1CCCNC(=O)[C@@H](CC(N)=O)NC(=O)[C@H](C(C)(C)C)NC(=O)[C@H](CO)NC(=O)[C@H](Cc2c[nH]c3ccccc23)NC(=O)[C@H](CCO)NC(=O)[C@@H](CCN)NC(=O)[C@H](CCC(=O)N[C@@H](CCN)C(=O)N[C@H](C(=O)N[C@@H](CN)C(=O)N[C@H]2CCNC(=O)[C@H]([C@@H](C)O)NC(=O)[C@H](CCN)NC(=O)[C@H](CCN)NC(=O)[C@H](CC(C)C)NC(=O)[C@@H](CC(C)C)NC(=O)[C@H](CCN)NC2=O)[C@@H](C)O)NC(=O)[C@H](CO)NC(=O)[C@H](Cc2ccc(O)cc2)NC1=O)C(C)C [Ex. 19] (I: Ac-V[Orn]YSE[dDab][hSer]WS[Tle][dN] / II: [Dab]T[Dap][Dab][Dab][dL]L[Dab][Dab]T; lactam I:2-I:C, II:4-II:C; amide I:5-II:N) | <1%
0.0625 µg/mL (≈ 0.0266 µM) | 0.25 µg/mL (≈ 0.106 µM) | 0.125 µg/mL (≈ 0.0532 µM) | 0.125 µg/mL (≈ 0.0532 µM) | CC(=O)N[C@H](C(=O)N[C@H]1CCCNC(=O)[C@@H](CCCCN)NC(=O)[C@H](C(C)(C)C)NC(=O)[C@H](CO)NC(=O)[C@H](Cc2c[nH]c3ccccc23)NC(=O)[C@H](CCO)NC(=O)[C@@H](CCN)NC(=O)[C@H](CCC(=O)N[C@@H](CCN)C(=O)N[C@H](C(=O)N[C@@H](CN)C(=O)N[C@H]2CCNC(=O)[C@H]([C@@H](C)O)NC(=O)[C@H](CCN)NC(=O)[C@H](CCN)NC(=O)[C@H](CC(C)C)NC(=O)[C@@H](CC(C)C)NC(=O)[C@H](CCN)NC2=O)[C@@H](C)O)NC(=O)[C@H](CO)NC(=O)[C@H](Cc2ccc(O)cc2)NC1=O)C(C)C [Ex. 30] (I: Ac-V[Orn]YSE[dDab][hSer]WS[Tle][dK] / II: [Dab]T[Dap][Dab][Dab][dL]L[Dab][Dab]T; lactam I:2-I:C, II:4-II:C; amide I:5-II:N) | <1%
0.5 µg/mL (≈ 0.208 µM) | 0.5 µg/mL (≈ 0.208 µM) | 1 µg/mL (≈ 0.415 µM) | 1 µg/mL (≈ 0.415 µM) | CC(C)C[C@@H]1NC(=O)[C@@H](CC(C)C)NC(=O)[C@H](CCN)NC(=O)[C@@H](NC(=O)[C@H](CCN)NC(=O)[C@@H](NC(=O)[C@H](CCN)NC(=O)CC[C@@H]2NC(=O)[C@H](CCN)NC(=O)[C@H](Cc3ccc(O)cc3)NC(=O)[C@@H](NC(=O)[C@@H](N)C(C)C)CCC(=O)NCC[C@@H](C(=O)N[C@@H](CO)C(=O)O)NC(=O)[C@H](C(C)(C)C)NC(=O)[C@H](CO)NC(=O)[C@H](Cc3c[nH]c4ccccc34)NC(=O)[C@H]([C@@H](C)O)NC(=O)[C@@H](CCN)NC2=O)[C@@H](C)O)CCNC(=O)[C@H]([C@@H](C)O)NC(=O)[C@H](CCN)NC(=O)[C@H](CCN)NC1=O [Ex. 56] (I: H-VEY[Dab]E[dDab]TWS[Tle][Dab]S-OH / II: [Dab]T[Dab][Dab][Dab][dL]L[Dab][Dab]T; lactam I:2-I:11, II:4-II:C; amide I:5-II:N) | <1%
